Where two headings read alike, the source gives them in different places.
What was measured:
[1] = system: SARS-CoV-2 strain hCoV-19/Czech Republic/NRL_6632_2/2020; test: microbe, parasite or virus in culture; format: cell-based; conditions: Calu-3 cell line
[2] = microsomes, 0.75 h, 10 µM, pH 7.4
in vitro [3] = conditions: human
Procedure: (§1) 3.5. Caco-2 permeability assay
(§2) Transepithelial bi-directional transport of compounds (10 µM, pH 7.4/7.4) was tested on 21-day differentiated Caco-2 monolayers. Briefly, the cells were seeded at a density of 67 ,500 cells per 96-well plate insert (Millicell®, Merck KGaA, Darmstadt, Germany). They were left to differentiate for 21 days with medium exchange every 2–3 days. Prior to the experiment, the medium from both apical and basolateral well was exchanged for HBSS buffer (containing 10 mM HEPES and 25 mM glucose) and left to equilibrate for 30 min. Compound permeability was assayed by replacing pure HBSS with HBSS containing 10 μM compounds and 220 μM Lucifer yellow (LY) solution in an apical insert (A to B transport) or in a basolateral well (B to A transport). The tre ated cells were then returned to the incubator for 2 h at 37 °C. After that, samples were collected from both apical inserts and basolateral wells and analyzed using LC -MS/MS (SCIEX Triple Quad™ 7500 QTRAP® Ready). LC separation was done on Synergi 4µm Fusion 50 × 2 mm column (Phenomenex) using a water/acetonitrile gradient with 0.1% formic acid starting from 2 to 98% for 4.5 min.
(§3) The apparent permeability coefficient (Papp) was calculated from t he following equation: Papp = (dQ / dt) / C0 * A, where dQ/dt is the rate of absorption of the drug across the cells, C0 is the donor compartment concentration at time zero, and A is the area of the monolayer. Efflux ratio was expressed as (Papp B -A) / (Papp A-B). Recovery (%) was determined as (total compound mass i n donor and receiver compartments at the end of the incubation / initial compound mass in the donor compartment) x 100. The data represent means ± SD of two independent experiments performed in triplicate. […]
(§4) were used as control compounds.

Caco-2 monolayers = test: in vitro; conditions: Caco-2
Procedure: as §1, §2, §3, §4

in vitro [4] = conditions: human; remark: listed apart in the source
[5] = microsomes, 0.75 h, 10 µM, pH 7.4; remark: listed apart in the source
human RNMT = human RNMT (Homo sapiens, UniProt O43148); test: Off-target inhibition of human RNMT; format: biochemical; conditions: 25 μM concentration of inhibitor
Source text: Human cells rely on several MTases; therefore, it is necessary to assess the possible off-target effect. […]

SARS-CoV-2 nsp14 MTase = SARS-CoV-2 nsp14 MTase (Severe acute respiratory syndrome coronavirus 2, UniProt P0DTD1); test: biochemical; format: biochemical; conditions: for IC50: read-out: IC50
[6] = 120 min, 10 μM
in vitro [7] = conditions: mouse, plasma
[8] = 120 min, 10 μM; remark: listed apart in the source

Sequence of human RNMT (O43148 whole entry): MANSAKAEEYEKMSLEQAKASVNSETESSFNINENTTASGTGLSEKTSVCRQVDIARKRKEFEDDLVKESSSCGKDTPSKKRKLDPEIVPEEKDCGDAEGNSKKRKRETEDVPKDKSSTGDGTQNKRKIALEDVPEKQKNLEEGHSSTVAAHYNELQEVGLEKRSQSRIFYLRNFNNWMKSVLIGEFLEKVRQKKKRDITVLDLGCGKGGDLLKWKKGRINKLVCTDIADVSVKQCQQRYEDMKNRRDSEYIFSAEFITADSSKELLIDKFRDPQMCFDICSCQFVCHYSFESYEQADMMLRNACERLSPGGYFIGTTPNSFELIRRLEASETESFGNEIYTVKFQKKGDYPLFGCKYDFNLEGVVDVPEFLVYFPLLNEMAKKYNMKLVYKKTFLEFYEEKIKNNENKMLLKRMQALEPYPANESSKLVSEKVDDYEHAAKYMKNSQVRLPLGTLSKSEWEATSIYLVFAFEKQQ

Cc1cc(=O)[nH]c2cc(NC(=O)[C@H]3O[C@@H](n4cc(C#Cc5cncnc5)c5c(N)ncnc54)[C@H](O)[C@@H]3O)ccc12 [18n]
EC50 ([1]; Severe acute respiratory syndrome coronavirus 2, 72 h, MOI ∼0.01, 3 days, read-out: EC50 (antiviral effect)): 10 ± 3 µM
EC50 ([1]; Severe acute respiratory syndrome coronavirus 2, Table S3, read-out: EC50): 9.8 µM
Microsomal stability % of the parent compound after 45 min, Mouse [2]: 85 ± 0.6%
efflux ratio at 2 h, 10 µM (in vitro [3]; Caco-2): 0.6
recovery at 2 h, 10 µM (in vitro [3]; Caco-2, Recovery (%) A-B): 148%
recovery at 2 h, 10 µM (in vitro [3]; Caco-2, Recovery (%) B-A): 110%
Papp A→B at 2 h, 10 µM (in vitro [3]; Caco-2, pH 7.4): 11.3 ± 3.7 ×10⁻⁶ cm/s
Papp B→A at 2 h, 10 µM (in vitro [3]; Caco-2, pH 7.4): 7.3 ± 1.3 ×10⁻⁶ cm/s
Papp A-B (Caco-2 monolayers): 11.3 ± 3.7 cm/s x 10-6
Papp B-A (Caco-2 monolayers): 7.3 ± 1.3 cm/s x 10-6
CC50 at 3 days (in vitro [4]): > 50 µM
Microsomal stability % of the parent compound after 45 min, Human [5]: 90 ± 2.0%
inhibitory activity against RNMT (human RNMT): None of the tested compounds exhibited any inhibitory activity
IC50 (SARS-CoV-2 nsp14 MTase; Table 1 and text, N.I., no inhibition): 0.043 ± 0.005 µM
Hill slope (SARS-CoV-2 nsp14 MTase; Table S1, dose-response curve, variable slope model): -1.29
IC50 (SARS-CoV-2 nsp14 MTase; values printed in Fig. 3 (correlation with GlideScore XP)): 0.04 µM
Plasma stability % of the parent compound after 120 min, Human [6]: 93 ± 0.4%
half-life at 2 h, 10 µM (in vitro [7]): 1.57 h
Plasma stability % of the parent compound after 120 min, Mouse [8]: 41 ± 0.7%
